What was measured:
[1] = system: ETS2; assay: CRISPR-Cas9 editing efficiency at the ETS2 locus in primary monocytes; format: cell-based, human; conditions: Cas9 RNPs nucleofected into primary monocytes; ICE analysis
Method: (§1) gRNA sequences were designed using CRISPick (formerly GPP sgRNA Designer) and synthesised by IDT. gRNA sequences: chr21q22 5′ gRNA, […]; chr21q22 3′ gRNA, […]; ETS2 gRNA1, […]; ETS2 gRNA2, […]. Alt-R CRISPR-Cas9 Negative Control crRNA #1 (IDT) was used as a non-targeting control. Cas9-gRNA ribonucleoproteins were assembled as described previously and nucleofected into 5×10^6 monocytes in 100 μL nucleofection buffer (Human Monocyte Nucleofection Kit, Lonza) using a Nucleofector 2b (Lonza, program Y-001). After nucleofection, monocytes were immediately transferred into 5 ml of pre-warmed culture media in a 6-well flat-bottomed plate, and differentiated into macrophages under TPP conditions. Editing efficiency was quantified by PCR amplification of the target region in extracted DNA (chr21q22_Fw primer, […]; chr21q22_Rv, […]; ETS2_g1_Fw, […]; ETS2_g1_Rv, […]; ETS2_g2_Fw, […]; ETS2_g2_Rv, […]). Editing efficiency at the chr21q22 locus was measured via quantification of amplified fragments (2100 Bioanalyzer, Agilent) as previously described. Editing efficiency for individual gRNAs was assessed using the Inference of CRISPR Edits tool (ICE, Synthego).

[2] = system: macrophages; assay: Viability and myeloid markers of macrophages after nucleofection with Cas9 RNPs and TPP differentiation; format: cell-based, human; conditions: TPP differentiation
Method: as §1
Expression of myeloid markers was assessed by flow cytometry (BD LSRFortessaTMX-20). […] Data were analysed using FlowJo v10 (BD Biosciences).

[3] = system: intestinal mucosal biopsies from patients with active IBD; assay: Human gut explant model: IBD intestinal mucosal biopsies cultured on transwell insert; format: cell-based; conditions: 18 hours culture; for release of IBD-associated inflammatory cytokines from biopsies: PD-0325901 0.5 μM or infliximab 10 µg/ml, vs DMSO, n=10
Method: During colonoscopy, intestinal mucosal biopsies (6 per donor) were collected from 10 IBD patients (7 ulcerative colitis, 3 Crohn's disease). All had endoscopically active disease and were not receiving immunosuppressive or biologic therapies. All biopsies were collected from a single inflamed site. All patients provided written informed consent. Ethical approval was provided by the London-Brent Regional Ethics Committee (REC: 21/LO/0682). Biopsies were collected into Opti-MEM and within 1 hour were weighed and placed in pairs onto a transwell insert (ThermoFisher)—designed to create an air-liquid interface70—in a 24-well plate. Each well contained 1 ml media and was supplemented with either DMSO (vehicle control), PD-0325901 (0.5 μM) or infliximab ([…]; MSD). Media: Opti-MEM I (Gibco); GlutaMAX (ThermoFisher): 10% FBS (ThermoFisher), MEM Non-Essential Amino Acids (ThermoFisher); 1% sodium pyruvate (ThermoFisher); 1% penicillin/streptomycin (ThermoFisher); 500 µg/ml gentamicin (Merck). After 18 hours, supernatants and biopsies were snap frozen. Supernatant cytokine concentrations were quantified using LEGENDplex Human Inflammation Panel (Biolegend). RNA was extracted from biopsies and libraries prepared as described earlier (n=9, RNA from one donor was too degraded). Sequencing was performed on a NovaSeq 6000 (100 bp, PE reads). Data were processed as described earlier and GSVA was performed for ETS2-regulated genes and biopsy-derived signatures of IBD-associated inflammation.

[4] = system: inflammatory macrophages (TPP); assay: MEK inhibitor (PD-0325901) testing in inflammatory macrophages (TPP), RNA-seq and fGSEA; format: cell-based, human
Method: Leukocyte cones from healthy donors were obtained from NHS Blood and Transplant (Cambridge Blood Donor Centre, Colindale Blood Centre, or Tooting Blood Donor Centre). Peripheral blood mononuclear cells (PBMCs) were isolated by density centrifugation (Histopaque 1077, Sigma) and monocytes were positively selected using CD14 Microbeads (Miltenyi Biotec). Macrophage differentiation was performed using conditions that model chronic inflammation (TPP): 3 days GM-CSF (50 ng/ml, Peprotech) followed by 3 days GM-CSF, TNFα (50 ng/ml, Peprotech), PGE2 (1 μg/ml, Sigma Aldrich), and […] (1 μg/ml, Invivogen). […]
RNA was isolated from macrophage lysates (AllPrep DNA/RNA Micro Kit, Qiagen) and sequencing libraries prepared from 10 ng RNA using the SMARTer Stranded Total RNA-Seq Kit v2-Pico Input Mammalian (Takara) following the manufacturer's instructions. Libraries were sequenced on a NextSeq2000 (50 bp, PE reads: CRISPR-based loss-of-function, roxadustat and PD-0325901 experiments) or a NovaSeq6000 (100 bp, PE reads: overexpression experiments). Reads were trimmed using Trim Galore (Phred score 24), filtered to remove reads <20 bp, and ribosomal reads were removed using the BBSplit function of BBMap (BBMap, sourceforge.net/projects/bbmap/) with the Human ribosomal DNA complete repeating unit (GenBank: U13369.1). […]

Molecule	editing efficiency at the ETS2 locus, mean indel rate [1] [%]	viability of macrophages following nucleofection with Cas9 RNPs and differentiation, mean [2] [%]	release of IBD-associated inflammatory cytokines from biopsies [3]	anti-inflammatory activity (relative expression of chr21q22-regulated genes), phenocopying ETS2 disruption or chr21q22 enhancer deletion ([4]; PD-0325901 0.5 μM added day 4, harvested day 6, vs vehicle (DMSO), n=3)	inflammatory pathways (fGSEA, Gene Ontology Biological Pathways) ([4]; PD-0325901 0.5 μM, day 4 to day 6, vs vehicle)	expression of ETS2-regulated genes in IBD biopsies (GSVA) ([3]; PD-0325901 0.5 μM, n=9)	validated transcriptional inflammation score (bMIS, GSVA) ([3]; PD-0325901 0.5 μM, n=9)
gRNA1: ETS2 guide RNA, CAGACACAGAAUUACCCCAA, delivered as Cas9 RNP (delivered as Cas9 ribonucleoprotein complex, further chemistry not given here)	89.7	98.3	–	–	–	–	–
infliximab	–	–	comparable levels	–	–	–	–
O=C(NOC[C@H](O)CO)c1ccc(F)c(F)c1Nc1ccc(I)cc1F [PD-0325901]	–	–	significantly reduced	potent anti-inflammatory activity	downregulation of multiple inflammatory pathways	reduced	significant improvement
gRNA2: ETS2 guide RNA, UUGCUGCACGGGGUUAACAA, delivered as Cas9 RNP (delivered as Cas9 ribonucleoprotein complex, further chemistry not given here)	78.6	98.6	–	–	–	–	–

Reference: patent publication US20260273081A1, “INHIBITORS OF ETS2-ACTIVATING MOLECULES FOR THE TREATMENT OF INFLAMMATORY DISEASES” (The Francis Crick Institute Limited, priority 2023, published 2026)
